Source: the NIST ThermoML archive (doi:10.1021/je301030z)

Experiment: mn = molality of the nth substance listed, in mol/kg
Details: 101 kPa, Liquid, Vibrating tube method

NCCO [2-aminoethan-1-ol] + O
mass density [kg/m3]
Details	293.16 K	297.14 K	301.14 K	305.14 K	309.14 K	313.14 K	317.14 K	320.14 K
m1 = 2.8	1004.53	1003.31	1001.95	1000.48	998.89	997.21	995.42	994.02
m1 = 7.01	1013.19	1011.51	1009.75	1007.89	1005.96	1003.95	1001.85	1000.22
